In US8877747B2, “Indenone derivative and pharmaceutical composition comprising same” (Korea Research Institute of Chemical Technology, priority 2009, dated 2014):
Structures can show the parent of a compound that is named as a salt.

Each compound was assayed on MC3T3-E1 cells (assay: ALP activity, differentiation of osteoblast cells). Conditions: Mus musculus, MC3T3-E1, 144 h; MC3T3E1 cells treated with 10 μM compound and OF; relates activity to OF-only group (100%); higher = more efficacious.
Type: cell-based
Experimental: To examine the effects of the inventive indenone derivatives on the differentiation and activation of osteoblast cells, the activity and expression of alkaline phosphatase (ALP), a marker for the differentiation of osteoblast cells, and the bone nodule formation using a mouse derived osteoblast-like cells, MC3T3-E1 (ATCC, Japan) or a primary mouse calvaria derived preosteoblastic cells were observed.
MC3T3-E 1 cells were seeded in a medium containing osteogenic factors (OF) such as ascorbic acids and β-glycerophosphates (b-GP), and each compound of Examples was added thereto at a concentration of 0.1, 1 and 10 μM. The cells were incubated for 6 days (MC3T3-E1 cells) or 7 days (primary mouse calvaria derived preosteoblastic cells) in a 37° C. CO2 incubator. Then, the culture medium was replaced with a fresh medium together with the test compound every two or three days. On the last day, the medium was centrifuged to remove the supernatant, and the cells were washed with PBS. The washed cells were subjected to a 3-cycle freege-thaw treatment using a −70° C. deep freezer to allow enzymes elute in a lysis buffer. The lysed protein was quantified, followed by measurement of ALP activity using 4-nitrophenylphosphate.
Further, a group treated only with DMSO or OF was tested for ALP activities for comparison.

SMILES	activity at 10 µM [%]
CC(C)(C)OC(=O)N1CCN(CCCOc2ccc3c(c2)C(=O)C(c2cccnc2)=C3c2cc(F)cc(F)c2)CC1 [Example 64, tert-butyl 4-(3-(3-(3,5-difluorophenyl)-1-oxo-2-(pyridin-3-yl)-1H-inden-6-yloxy)propyl)piperazine-1-carboxylate]	34
CN1CCN(CCCOc2ccc3c(c2)C(=O)C(c2cccnc2)=C3c2cc(F)cc(F)c2)CC1 [Example 65, 3-(3,5-difluorophenyl)-6-(3-(4-methylpiperazin-1-yl)propoxy)-2-(pyridin-3-yl)-1H-inden-1-one hydrochloride salt]	19
O=C1C(c2cccnc2)=C(c2cc(F)cc(F)c2)c2ccc(OCCCN3CCNCC3)cc21 [Example 66, 3-(3,5-difluorophenyl)-6-(3-(piperazin-1-yl)propoxy)-2-(pyridin-3-yl)-1H-inden-1-one hydrochloride salt]	70
CC(=O)N1CCN(CCCOc2ccc3c(c2)C(=O)C(c2cccnc2)=C3c2cc(F)cc(F)c2)CC1 [Example 67, 6-(3-(4-acetylpiperazin-1-yl)propoxy)-3-(3,5-difluorophenyl)-2-(pyridin-3-yl)-1H-inden-1-one hydrochloride salt]	116
CS(=O)(=O)N1CCN(CCCOc2ccc3c(c2)C(=O)C(c2cccnc2)=C3c2cc(F)cc(F)c2)CC1 [Example 68, 3-(3,5-difluorophenyl)-6-(3-(4-(methylsulfonyl)piperazin-1-yl)propoxy)-2-(pyridin-3-yl)-1H-inden-1-one hydrochloride salt]	164
CC(C)(C)OC(=O)N1CCC(CCOc2ccc3c(c2)C(=O)C(c2cccnc2)=C3c2cc(F)cc(F)c2)CC1 [Example 69, tert-butyl 4-(2-(3-(3,5-difluorophenyl)-1-oxo-2-(pyridin-3-yl)-1H-inden-6-yloxy)ethyl)piperidine-1-carboxylate]	72
O=C1C(c2cccnc2)=C(c2cc(F)cc(F)c2)c2ccc(OCCC3CCNCC3)cc21 [Example 70, 3-(3,5-difluorophenyl)-6-(2-(piperidin-4-yl)ethoxy)-2-(pyridin-3-yl)-1H-inden-1-one hydrochloride salt]	19
CN1CCC(CCOc2ccc3c(c2)C(=O)C(c2cccnc2)=C3c2cc(F)cc(F)c2)CC1 [Example 71, 3-(3,5-difluorophenyl)-6-(2-(1-methylpiperidin-4-yl)ethoxy)-2-(pyridin-3-yl)-1H-inden-1-one hydrochloride salt]	19
CC(=O)N1CCC(CCOc2ccc3c(c2)C(=O)C(c2cccnc2)=C3c2cc(F)cc(F)c2)CC1 [Example 72, 6-(2-(1-acetylpiperidin-4-yl)ethoxy)-3-(3,5-difluorophenyl)-2-(pyridin-3-yl)-1H-inden-1-one hydrochloride salt]	58
CS(=O)(=O)N1CCC(CCOc2ccc3c(c2)C(=O)C(c2cccnc2)=C3c2cc(F)cc(F)c2)CC1 [Example 73, 3-(3,5-difluorophenyl)-6-(2-(1-(methylsulfonyl)piperidin-4-yl)ethoxy)-2-(pyridin-3-yl)-1H-inden-1-one hydrochloride salt]	150
O=C1C(c2cccnc2)=C(c2cc(F)cc(F)c2)c2ccc(OCCN3CCS(=O)(=O)CC3)cc21 [Example 74, 6-[2-(1,1-dioxothiomorpholin-4-yl)ethoxy]-3-(3,5-difluorophenyl)-2-(pyridin-3-yl)-1H-inden-1-one hydrochloride salt]	206
O=C1C(c2cccnc2)=C(c2cc(F)cc(F)c2)c2ccc(OCCC3CCOCC3)cc21 [Example 78, 3-(3,5-difluorophenyl)-2-(pyridin-3-yl)-6-(2-(tetrahydro-2H-pyran-4-yl)ethoxy)-1H-inden-1-one]	187
O=C1C(c2cccnc2)=C(c2cc(F)cc(F)c2)c2ccc(OCC3CCCO3)cc21 (stereo not shown) [Example 79, 3-(3,5-difluorophenyl)-2-(pyridin-3-yl)-6-((tetrahydrofuran-2-yl)methoxy)-1H-inden-1-one]	110
O=C1C(c2cccnc2)=C(c2ccccc2F)c2ccc(OCCN3CCOCC3)cc21 [Example 80, 6-(2-morpholinoethoxy)-3-(2-fluorophenyl)-2-(pyridin-3-yl)-1H-inden-1-one]	74
O=C1C(c2cccnc2)=C(c2cccc(F)c2)c2ccc(OCCN3CCOCC3)cc21 [Example 81, 6-(2-morpholinoethoxy)-3-(3-fluorophenyl)-2-(pyridin-3-yl)-1H-inden-1-one]	116
O=C1C(c2cccnc2)=C(c2ccc(F)cc2F)c2ccc(OCCN3CCOCC3)cc21 [Example 82, 6-(2-morpholinoethoxy)-3-(2,4-difluorophenyl)-2-(pyridin-3-yl)-1H-inden-1-one]	178

SMILES	activity at 10 µM [%]
O=C1C(c2ccccn2)=C(c2ccccc2)c2ccc(OCCN3CCOCC3)cc21 [Example 83, 6-(2-morpholinoethoxy)-3-phenyl-2-(pyridin-2-yl)-1H-inden-1-one]	18
O=C1C(c2ccc3c(c2)OCO3)=C(c2ccccc2)c2ccc(OCCN3CCOCC3)cc21 [Example 85, 2-(benzo[1,3]dioxol-5-yl)-6-(2-morpholinoethoxy)-3-phenyl-1H-inden-1-one]	77
O=C1C(c2ccc(Cl)s2)=C(c2ccccc2)c2ccc(OCCN3CCOCC3)cc21 [Example 86, 2-(5-chlorothiophen-2-yl)-6-(2-morpholinoethoxy)-3-phenyl-1H-inden-1-one]	77
Cn1ccc2cc(C3=C(c4ccccc4)c4ccc(OCCN5CCOCC5)cc4C3=O)ccc21 [Example 87, 2-(1-methyl-1H-indol-5-yl)-6-(2-morpholinoethoxy)-3-phenyl-1H-inden-1-one]	71
O=C1C(c2ccc[nH]2)=C(c2ccccc2)c2ccc(OCCN3CCOCC3)cc21 [Example 90, 6-(2-morpholinoethoxy)-3-phenyl-2-(1H-pyrrol-2-yl)-1H-inden-1-one]	63
O=C1C(c2cc3ccccc3o2)=C(c2ccccc2)c2ccc(OCCN3CCOCC3)cc21 [Example 91, 6-(2-morpholinoethoxy)-2-(benzofuran-2-yl)-3-phenyl-1H-inden-1-one]	67
O=C1C(c2cnc3ccccc3c2)=C(c2cc(F)cc(F)c2)c2ccc(OCCN3CCS(=O)(=O)CC3)cc21 [Example 92, 3-(3,5-difluorophenyl)-6-[2-(1,1-dioxothiomorpholin-4-yl)ethoxy]-2-(quinolin-3-yl)-1H-inden-1-one hydrochloride salt]	262
COc1ccc(C2=C(c3cc(F)cc(F)c3)c3ccc(OCCN4CCS(=O)(=O)CC4)cc3C2=O)cn1 [Example 93, 3-(3,5-difluorophenyl)-2-(6-methoxypyridin-3-yl)-6-[2-(1,1-dioxothiomorpholin-4-yl)ethoxy]-1H-inden-1-one hydrochloride salt]	155
Cc1ccc(C2=C(c3cc(F)cc(F)c3)c3ccc(OCCN4CCS(=O)(=O)CC4)cc3C2=O)cc1 [Example 94, 3-(3,5-difluorophenyl)-6-[2-(1,1-dioxothiomorpholin-4-yl)ethoxy]-2-p-tolyl-1H-inden-1-one hydrochloride salt]	109
COc1ccc(C2=C(c3cc(F)cc(F)c3)c3ccc(OCCN4CCS(=O)(=O)CC4)cc3C2=O)cc1F [Example 95, 2-(3-fluoro-4-methoxyphenyl)-3-(3,5-difluorophenyl)-6-[2-(1,1-dioxothiomorpholin-4-yl)ethoxy]-1H-inden-1-one hydrochloride salt]	203
CS(=O)(=O)N1CCN(CCOc2ccc3c(c2)C(=O)C(c2cnc4ccccc4c2)=C3c2cc(F)cc(F)c2)CC1 [Example 96, 3-(3,5-difluorophenyl)-6-{2-[4-(methylsulfonyl)piperazin-1-yl]ethoxy}-2-(quinolin-3-yl)-1H-inden-1-one hydrochloride salt]	152
COc1ccc(C2=C(c3cc(F)cc(F)c3)c3ccc(OCCN4CCN(S(C)(=O)=O)CC4)cc3C2=O)cn1 [Example 97, 3-(3,5-difluorophenyl)-2-(6-methoxypyridin-3-yl)-6-{2-[4-(methylsulfonyl)piperazin-1-yl]ethoxy}-1H-inden-1-one hydrochloride salt]	179
Cc1ccc(C2=C(c3cc(F)cc(F)c3)c3ccc(OCCN4CCN(S(C)(=O)=O)CC4)cc3C2=O)cc1 [Example 98, 3-(3,5-difluorophenyl)-6-{2-[4-(methylsulfonyl)piperazin-1-yl]ethoxy}-2-p-tolyl-1H-inden-1-one hydrochloride salt]	146
COc1ccc(C2=C(c3cc(F)cc(F)c3)c3ccc(OCCN4CCN(S(C)(=O)=O)CC4)cc3C2=O)cc1F [Example 99, 2-(3-fluoro-4-methoxyphenyl)-3-(3,5-difluorophenyl)-6-{2-[4-(methylsulfonyl)piperazin-1-yl]ethoxy}-1H-inden-1-one hydrochloride salt]	212
COc1ccc(C2=C(c3cc(F)cc(F)c3)c3ccc(OCCC4CCN(S(C)(=O)=O)CC4)cc3C2=O)cn1 [Example 100, 3-(3,5-difluorophenyl)-2-(6-methoxypyridin-3-yl)-6-{2-[1-(methylsulfonyl)piperidin-4-yl]ethoxy}-1H-inden-1-one hydrochloride salt]	185
